# Measured values reported in patent publication EP4745242A1, “NUCLEIC ACID VECTOR, NUCLEIC ACID DRUG, PREPARATION METHOD THEREFOR, AND USE THEREOF” (Bai Yao Zhi Da (Beijing) Nanobio Technology Co., Ltd., priority 2023, dated 2025).
# Assay: Example 41: body weight and clinical observations
# Type: in vivo, BALB/cCrSlcNifdc mice
# Conditions: for Individual animal body weight: single mouse per group
# Procedure: • a) General clinical observations: The clinical condition of mice was observed three times per week during the study, including assessment of tumor nodule ulceration, general appearance/behavior, coat condition, and food intake. • b) Body weight: Mouse body weight was recorded three times per week. • c) Tumor volume: Tumor volume was measured three times per week using vernier calipers. The longest diameter (length) and the perpendicular short diameter (width) were measured, and tumor volume was calculated as: Volume = 0.5 × length × (short diameter)^2. […] The tumor-weight inhibition rate (IRTW, %) was calculated, taking IRTW% > 60% as a reference indicator of efficacy. The calculation is as follows: IRTW(%) = (Wvehicle control−Wtreatment)/Wvehicle control × 100, [formula] where W denotes tumor weight.
compound,measurement,setting,value
"COc1cccc2c1C(=O)c1c(O)c3c(c(O)c1C2=O)C[C@@](O)(C(=O)CO)C[C@@H]3O[C@H]1C[C@H](N)[C@@H](O)[C@H](C)O1 [F, epirubicin]","Animal body weight, D26","one animal per group, D26, 26 days after tumor cell injection, in g (unit assumed)",26.81
same,Change in body weight (g),"one animal per group, before administration to D26",+6.39 g
same,"Animal body weight, Before administration","one animal per group, tail-vein injection once weekly, total 2 administrations, before administration",20.42
same,Individual animal body weight,"DAY 12, in g (unit assumed)",20.42
same,Individual animal body weight,"DAY 14, in g (unit assumed)",22.15
same,Individual animal body weight,"DAY 17, in g (unit assumed)",23.68
same,Individual animal body weight,"DAY 19, in g (unit assumed)",25.41
same,Individual animal body weight,"DAY 21, in g (unit assumed)",26.51
same,Individual animal body weight,"DAY 24, in g (unit assumed)",29.19
same,Individual animal body weight,"DAY 26, in g (unit assumed)",26.81
